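All cell lines were grown in 96-well plates and treated with compound for 48 hours. Definition used: TGI = concentration required for complete inhibition of growth.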
Legend:
Assay in all cases: NCI-60 cell line screen, 48 h
786-0 renal = system: 786-0 renal
A498 renal = system: A498 renal
A549 NSCLC = system: A549 NSCLC
ACHN renal = system: ACHN renal
CAKI-1 renal = system: CAKI-1 renal
CCRF-CEM leukemia = system: CCRF-CEM leukemia
COLO 205 colon = system: COLO 205 colon
DLD-1 colon = system: DLD-1 colon
DMS 273 small cell lung = system: DMS 273 small cell lung
EKVX NSCLC = system: EKVX NSCLC
HCT-116 colon = system: HCT-116 colon
HCT-15 colon = system: HCT-15 colon
HL-60(TB) leukemia = system: HL-60(TB) leukemia
HOP-18 NSCLC = system: HOP-18 NSCLC
HOP-62 NSCLC = system: HOP-62 NSCLC
HOP-92 NSCLC = system: HOP-92 NSCLC
HT29 colon = system: HT29 colon
IGROV1 ovarian = system: IGROV1 ovarian
K-562 leukemia = system: K-562 leukemia
KM12 colon = system: KM12 colon
KM20L2 colon = system: KM20L2 colon
LOX IMVI melanoma = system: LOX IMVI melanoma
LXFL 529 NSCLC = system: LXFL 529 NSCLC
M14 melanoma = system: M14 melanoma
M19-MEL melanoma = system: M19-MEL melanoma
MALME-3M melanoma = system: MALME-3M melanoma
MOLT-4 leukemia = system: MOLT-4 leukemia
NCI-H226 lung = system: NCI-H226 lung
NCI-H23 lung = system: NCI-H23 lung
NCI-H460 lung = system: NCI-H460 lung
NCI-H522 lung = system: NCI-H522 lung
OVCAR-3 ovarian = system: OVCAR-3 ovarian
OVCAR-4 ovarian = system: OVCAR-4 ovarian
OVCAR-5 ovarian = system: OVCAR-5 ovarian
OVCAR-8 ovarian = system: OVCAR-8 ovarian
RPMI-8226 leukemia = system: RPMI-8226 leukemia
RXF 393 renal = system: RXF 393 renal
RXF-631 renal = system: RXF-631 renal
SF-268 CNS = system: SF-268 CNS
SF-295 CNS = system: SF-295 CNS
SF-539 CNS = system: SF-539 CNS
SK-MEL-2 melanoma = system: SK-MEL-2 melanoma
SK-MEL-28 melanoma = system: SK-MEL-28 melanoma
SK-MEL-5 melanoma = system: SK-MEL-5 melanoma
SK-OV-3 ovarian = system: SK-OV-3 ovarian
SN12C renal = system: SN12C renal
SNB-19 CNS = system: SNB-19 CNS
SNB-75 CNS = system: SNB-75 CNS
SNB-78 CNS = system: SNB-78 CNS
SR leukemia = system: SR leukemia
SW-620 colon = system: SW-620 colon
TK-10 renal = system: TK-10 renal
U251 CNS = system: U251 CNS
UACC-257 melanoma = system: UACC-257 melanoma
UACC-62 melanoma = system: UACC-62 melanoma
UO-31 renal = system: UO-31 renal
XF 498 CNS = system: XF 498 CNS
HCC-2998 colon = system: HCC-2998 colon

Measured: TGI

O=[N+]([O-])c1ccc(C2N3CCCCC3[C@H]3CCCCN23)cc1 (stereo partly specified)
not listed: HCC-2998 colon
> 100 µM: all other assays above

Cc1cccc(C(C)(C)C)c1NC(=O)CCl
not listed: HCT-15 colon | HOP-92 NSCLC | OVCAR-5 ovarian | RPMI-8226 leukemia
> 100 µM: all other assays above
